# Test results as given in patent publication EP4806903A1, “WHOLE-PROCESS TARGETING POLYPEPTIDE, PHARMACEUTICAL COMPLEX THEREOF, DRUG DELIVERY SYSTEM AND USE THEREOF” (Fudan University, priority 2023, dated 2025).
# Where no end group is shown, it is not given here. [ ]: non-standard residue; d: D form.
# Tests used:
# [1] = Saturation solubility in PBS; format: physicochemical; settings: aqueous buffer, PBS pH 7.4, 37°C, calculated based on DOX
# Procedure: The mixture was incubated at 37°C for 24 hours, then filtered through a membrane of 0.22 µm. The filtrates were subsequently diluted 10-fold and 20-fold, respectively, and the concentration of DOX was measured.
# Tumor cells U87 = test: Intracellular DOX detection in U87 cells; format: cell-based; settings: 4 hours, 37°C
# Procedure: Tumor cells U87 in the logarithmic growth phase and macrophages RAW264.7, both cultured as monolayers, were detached from the culture dishes by digestion with 0.25% trypsin. The single-cell suspensions were prepared in DMEM medium supplemented with 10% fetal bovine serum. Each well of a 6-well plate was seeded with 5 × 10^5 cells in a volume of 2 mL per well. The plates were then transferred to a CO2 incubator and cultured overnight at 37°C under conditions of 5% CO2 and saturated humidity. After overnight incubation, the culture medium was wholly aspirated from each well. DOX, pHA-AHX-VAP-DOX, and pHA-AOnHX-VAP-DOX (n = 1, 2, 3, 5) solutions were added to the wells, and the cells were incubated at 37°C for 4 hours. The supernatant was then discarded. Following cell collection by trypsinization, the cells were washed three times with PBS and counted. After the final wash, any remaining supernatant was wholly removed. To the cell pellet, acidified methanol (Vmethanol : Vmethanoic acid = 98:2) was added, and the cells were subjected to sonication. After centrifugation at 10,000 rpm for 10 minutes, the supernatant was collected and analyzed for DOX concentration.
# [2] = Maximum tolerated dose study; design: species or system Male Balb/c mice; settings: mouse, in vivo, iv; tail vein, 14 days monitoring; dose at which no mice died; expressed as DOX
# Procedure: The body weight changes of the mice were recorded daily (relative body weight change = daily body weight / initial body weight), with continuous monitoring for 14 days to observe whether any mice died.
# U87 orthotopic glioma = test: In vivo pharmacodynamic study, survival of U87 orthotopic glioma mice; design: species or system nude mice; settings: single dose of DOX 1 mg/kg, intravenous, every other day from day 5
# Procedure: Approximately 20 g nude mice were anesthetized and fixed onto a stereotaxic apparatus. Orthotopic glioma mouse model was established by injecting 5 µL of U87 cell suspension (5×10^5 cells) with microsyringe into the striatum of the mice (0.6 mm anteroposterior to the bregma, 1.8 mm lateral to the midline, and 3 mm deep). On day 5 after tumor implantation, the mice were randomly divided into four groups, with 10 mice per group.
# GRP78 protein [3] = test: Western blot of GRP78 protein on the cell membrane of U87 cells; format: cell-based
# Procedure: After cells were subjected to various treatments, the culture medium was removed, and the cells were washed twice with pre-cooled PBS. The cells were then scraped off and collected into an EP tube. Membrane proteins were extracted using a cell membrane protein extraction kit, followed by centrifugation at 12,000 rpm at 4°C to obtain the supernatant, which was stored for later use. The total protein concentration was determined using the BCA assay, after which the sample was mixed with 5× loading buffer at a ratio of 4:1 and heated to denature the proteins. The samples were stored at -20°C for future use. Samples containing approximately 40 µg of protein were subjected to 15% polyacrylamide gel electrophoresis and then transferred onto polyvinylidene fluoride (PVDF) membranes. […]
# After U87 cells were treated with free DOX at different concentrations for 48 hours, membrane proteins were extracted and detected using the method described above.
# After U87 cells were treated with different concentrations of TMZ for 48 hours, membrane proteins were extracted and detected using the method described above.
# After U87 cells were treated with 5 µg/mL TMZ for varying durations, membrane proteins were extracted and analyzed using the method described above.
# GRP78 protein [4] = test: Western blot of GRP78 protein in tumors of orthotopic glioma mice; format: in vivo, nude mice; settings: TMZ 10 mg/mL by gavage, after 48 hours
# in situ glioma = test: Efficacy of TMZ combined with peptide-DOX complex in in situ glioma; settings: TMZ 10 mg/kg by gavage Days 3-21; pHA-AO1HX-VAP-DOX equivalent to 3 mg/kg DOX tail vein Days 5-23; n = 10
# Procedure: The in situ glioma model was established as above, with the day of modeling set as Day 0. On Days 3, 5, 7, 9, 11, 13, 15, 17, 19, and 21, mice were administered TMZ by gavage at a single dose of 10 mg/kg.
# [5] = In vivo distribution in nude mouse model of orthotopic glioma; design: species or system nude mice; settings: DOX dose 5 mg/kg, tail vein, 30 minutes; compared to free DOX
# Procedure: Approximately 22 g nude mice were anesthetized and fixed onto a stereotaxic apparatus. An orthotopic glioma mouse model was established by injecting 5 µL of U87 cell suspension (8×10^5 cells) with microsyringe into the striatum of the mice (0.6 mm anteroposterior to the bregma, 1.8 mm lateral to the midline, and 3 mm ventral to the surface). Ten days after tumor implantation, the mice were administered DOX (5 mg/kg) or pHA-AOnHX-VAP-DOX (n = 1, 2, 3, 5; DOX dose: 5 mg/kg) via tail vein injection. Thirty minutes later, the mice were anesthetized, perfused with PBS, and the major organs including the brain, heart, liver, spleen, lungs, and kidneys were collected. The tissues from each organ were blotted dry with filter paper and weighed. Then, according to the weight of each organ, a specific volume of isopropanol containing 0.075 M HCl and 10% water was added, followed by homogenization. After overnight incubation at 4°C, the samples were centrifuged, and the supernatants were collected for analysis. […] As depicted in Figure 30, the accumulation of DOX in the heart was reduced by pHA-AOnHX-VAP-DOX (n = 1, 2, 3, 5), while the drug concentration in the blood was increased.
# [6] = target: glucose-regulated protein GRP78 (Homo sapiens, UniProt P11021); settings: previously validated by research team; cited from earlier work
# Sequence of glucose-regulated protein GRP78 (P11021 19-654): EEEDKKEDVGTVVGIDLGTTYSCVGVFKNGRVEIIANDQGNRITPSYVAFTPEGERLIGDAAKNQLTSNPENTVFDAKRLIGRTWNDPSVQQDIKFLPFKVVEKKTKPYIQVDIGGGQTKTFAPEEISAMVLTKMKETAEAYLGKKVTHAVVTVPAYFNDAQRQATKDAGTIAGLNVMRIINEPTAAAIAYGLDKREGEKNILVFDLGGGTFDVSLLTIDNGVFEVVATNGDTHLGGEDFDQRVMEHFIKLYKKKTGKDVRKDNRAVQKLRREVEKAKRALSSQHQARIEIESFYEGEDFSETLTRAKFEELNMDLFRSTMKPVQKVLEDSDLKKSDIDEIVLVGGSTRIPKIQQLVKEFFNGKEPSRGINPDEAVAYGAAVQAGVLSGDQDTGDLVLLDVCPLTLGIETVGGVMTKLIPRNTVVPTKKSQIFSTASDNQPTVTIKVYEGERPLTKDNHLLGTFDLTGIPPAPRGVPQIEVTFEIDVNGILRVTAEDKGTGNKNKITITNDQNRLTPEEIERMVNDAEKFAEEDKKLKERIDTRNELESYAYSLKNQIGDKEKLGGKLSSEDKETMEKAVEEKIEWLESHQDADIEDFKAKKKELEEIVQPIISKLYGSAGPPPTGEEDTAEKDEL
compound,measurement,setting,value
"COc1cccc2c1C(=O)c1c(O)c3c(c(O)c1C2=O)C[C@@](O)(C(=O)CO)C[C@@H]3O[C@H]1C[C@H](N)[C@H](O)[C@H](C)O1 [DOX, doxorubicin]",solubility at 24 h,[1],220 ± 30 µg/mL
same,uptake by U87 cells (intracellular DOX),Tumor cells U87,higher cellular uptake
same,MTD at 336 h,[2],~10 mg/kg
same,median survival time,U87 orthotopic glioma,35.5 days
same,expression of GRP78 protein on the cell membrane surface of U87 cells,"GRP78 protein [3]; different concentrations, 48 hours",significantly upregulated
"Cn1nnc2c(C(N)=O)ncn2c1=O [TMZ, temozolomide]",time after which GRP78 protein on the cell membrane began to significantly upregulate,"GRP78 protein [3]; 5 µg/mL TMZ, varying durations up to 48 hours",12 h
same,expression of GRP78 protein in tumor tissue relative to control group,GRP78 protein [4],1.45 times
same,median survival time,in situ glioma,48 days
COc1cccc2c1C(=O)c1c(O)c3c(c(O)c1C2=O)C[C@@](O)(C(CO)=NNC(=O)CCCCCN1C(=O)CC(SC[C@H](NC(=O)CCOCCOCCNC(=O)c2ccc(O)cc2)C(=O)N2CCC[C@@H]2C(=O)N[C@H](C)C(=O)N[C@@H](C(=O)N[C@H](CCCNC(=N)N)C(=O)N[C@@H](C(=O)N[C@H](CC(N)=O)C(=O)N[C@H](CO)C(=O)O)[C@H](C)O)C(C)C)C1=O)C[C@@H]3O[C@H]1C[C@H](N)[C@H](O)[C@H](C)O1 (stereo partly drawn) [pHA-AO2HX-VAP-DOX],brain accumulation of DOX,[5],greatest increase
"^DVAP: D-type amino acid sequence ^DP^DA^DV^DR^DT^DN^DS, SEQ ID NO: 3 ([dP][dA][dV][dR][dT][dN][dS])",binding affinity to glucose-regulated protein GRP78,[6],high binding affinity
"^LVAP: L-type amino acid sequence SNTRVAP, SEQ ID NO: 1",binding affinity to glucose-regulated protein GRP78,[6],high binding affinity
"^SVAP: D-type amino acid sequence ^DS^DN^DT^DR^DV^DA^DP, SEQ ID NO: 4 (SNTRVAP; all D-amino acids; VARIANT 1..7: note = D type amino acid)",binding affinity to glucose-regulated protein GRP78,[6],high binding affinity
